Data as given in US9956229B2, “Acyclic cucurbit[n]uril type molecular containers to treat intoxication and decrease relapse rate in substance abuse disorders” (UNIVERSITY OF MARYLAND, COLLEGE PARK, priority 2014, dated 2018).

Assays:
[1] = Direct 1H NMR titration, 1:1 binding model; settings: 20 mM NaH2PO4 buffered (pH 7.4) D2O
Method: A direct titration was performed between the host and guest. The concentration of the host was kept constant while varying the concentration of the guest and the change in chemical shift of a selected host signal was measured. The change in chemical shift as a function of guest concentration was fitted to a 1:1 binding model to determine the Ka. In some cases, the concentration of guest was fixed and host concentration was varied, depending on the availability of a suitable ^1H NMR peak whose chemical shift change could be easily monitored.
1:1 Binding Model for NMR

[2] = tested on: ketamine anesthesia; test: EEG power and mean arterial pressure during continuous ketamine infusion; assay type: in vivo, rat; settings: escalating phenylephrine infusion 4 to 10 μg/kg/min; n=3

O=C1N2CN3C(=O)N4CN5C(=O)N6CN7C(=O)N8CN9C(=O)N%10CN%11C(=O)N%12CN%13C(=O)N%14CN1C1C2N2CN%15C(=O)N(CN%16C(=O)N(CN%17C(=O)N(CN%18C(=O)N(CN%19C(=O)N(CN%20C(=O)N(CN1C2=O)C%14C%13%20)C%12C%11%19)C%10C9%18)C8C7%17)C6C5%16)C4C3%15 (centres unmarked) [CB[7], cucurbit[7]uril]
Binding Constant with Host (Ka), morphine [1]: <10^3 M^−1

O=S(=O)(O)c1cc2c(O)c(c1)Cc1cc(S(=O)(=O)O)cc(c1O)Cc1cc(S(=O)(=O)O)cc(c1O)Cc1cc(S(=O)(=O)O)cc(c1O)C2 [4-sulfo calix[4]arene]
Binding Constant with Host (Ka), morphine [1]: (4.9±0.3)×10^4 M^−1
Binding Constant with Host (Ka), cocaine ([1]; 1:1 model): (4.3±1.5)×10^4 M^−1
Binding Constant with Host (Ka), ketamine ([1]; 1:1 model): ~10^5 M^−1
Binding Constant with Host (Ka), methamphetamine ([1]; 1:1 model): (3.8±0.6)×10^4 M^−1
Binding Constant with Host (Ka), phencyclidine ([1]; 1:1 model): (5.0±0.6)×10^4 M^−1
Binding Constant with Host (Ka), ketamine ([1]; 1:1 model, listed as 4-suldo calix[4]arene): ~10^5 M^−1

CNC[C@H](O)c1cccc(O)c1 [phenylephrine]
effect on MAP and EEG power during steady state shallow ketamine anesthesia [2]: significant MAP increases without effects on EEG power
